These results are taken from a melting point compilation (Tetko et al.).

In general, melting point refers to the temperature, or range, at which the solid turns liquid. Molecule `Cc1ccc2c(Cl)c(C(=O)O)sc2c1` gave a melting point of 271 to 273 °C.
Consider `OCc1cn(-c2ccc(Cl)cc2)nn1`, for which the melting point lay in the range of 142 to 144 °C.
Then `COc1cc(C)c(Br)cc1S(=O)(=O)Cl`, with 137 to 139 °C; and `CS(=O)(=O)c1cc([N+](=O)[O-])c(O)c([N+](=O)[O-])c1`, with 221 to 223 °C; and `O=C(O)CNC(=O)C(F)(F)F`, with 152 to 154 °C.
Then `CC(=O)Nc1cc(NC(C)=O)cc(C(=O)O)c1`, with 187 to 189 °C; and `Cc1nn(CC(C)C)c(C)c1CCC(=O)O`, with 80 to 90 °C; and `Clc1ccc2c(Cl)ccc(Cl)c2n1`, with 85 to 87 °C.
Under `Cc1cc(C(=O)CCl)c(C)n1-c1ccccc1F` stands 86 to 90 °C; under `COc1cc(Cl)c(C(=O)CBr)cc1OC`, 93 to 95 °C; under `CC(Cl)C(=O)Nc1cc(Cl)ccc1Cl` (stereo not given), 123 to 125 °C.
The molecule `CC(C)(C)OC(=O)N1CCCC(C)(C(=O)O)C1` (stereo not given) returned a melting point of 117 to 119 °C.
Then `O=C(O)CNC(=O)CC1CCCCC1`, with 116 to 118 °C; and `O=C(O)c1cccc(OCC2CCCO2)c1` (stereo not given), with 86 to 88 °C.
Then `Cc1[nH]c(=O)c(C(=O)O)cc1-c1ccccc1`, with 258 to 260 °C; and `NNC(=S)Nc1cc(S(=O)(=O)N2CCOCC2)ccc1Cl`, with 181 to 183 °C.
Then `O=C(O)COc1ccccc1C(F)(F)F`, with 151 to 153 °C; and `O=C(O)CCc1ncc(-c2ccccc2)o1`, with 148 to 150 °C; and `CS(=O)(=O)NCCN=C=S`, with 163 to 165 °C.
`N#Cc1c(N)nc2n1CCS2` gave a melting point of 216 to 218 °C.
Molecule `NC1CCC2SCCSC12` (stereo not given) displayed a melting point of 49 to 51 °C.
Then `CCOC(=O)COc1ccc(C(C)=O)cc1`, with 52 to 54 °C.
Under `Nc1cc(-c2cccc(F)c2)no1` stands 103 to 105 °C; under `CC(=O)c1cnn(C)c1`, 51 to 53 °C.
Under `Nc1c(Oc2ccc(Cl)cc2)ccc2ncccc12` stands 124 to 126 °C; under `Nc1cc(F)ccc1S(N)(=O)=O`, 129 to 131 °C.
Molecule `Nc1c(C(=O)O)ccnc1Cl` returned a melting point of 249 to 251 °C.
Then `NC1CCC(c2nc(-c3ccccc3)n[nH]2)CC1` (stereo not given), with 163 to 165 °C; and `N#Cc1ccc2[nH]c(=O)[nH]c2c1`, with 296 to 298 °C; and `NCC(c1ccccc1)c1c[nH]c2ccccc12` (stereo not given), with 123 to 125 °C.
Then `CCOC(=O)c1sc2ncnc(Cl)c2c1C`, with 113 to 115 °C.
Then `COCCOc1cc2c(cc1C=O)OCO2`, with 84 to 86 °C; and `O=S(=O)(Cl)c1cccc(-c2cccs2)c1`, with 57 to 59 °C.
`Nc1nnc(-c2ccc3c(c2)OCCO3)o1`: the melting point was in the range of 247 to 249 °C.
`Nc1nnc(-c2ccccn2)[nH]1`: the melting point lay in the range of 199 to 201 °C.
Then `O=[N+]([O-])c1ccc(F)cc1NC1CC1`, with 69 to 71 °C; and `Cc1ccc(-n2cc(C=O)c(C(C)(C)C)n2)cc1`, with 79 to 81 °C.
On to `CC(NC(=O)c1cc(-c2ccccc2)on1)C(=O)O` (stereo not given), for which the melting point lay in the range of 164 to 166 °C.
As for `CSc1nccn1-c1ccc(C(=O)O)cc1`, the melting point lay within 296 to 298 °C.
Under `CC(C)(C)OC(=O)NCCC(=O)NC(N)=O` stands 162 to 164 °C.
Consider `Cc1c(C(=O)O)cnn1-c1cccc(Br)c1`, for which the melting point was 169 to 171 °C.
Then `O=C(O)c1cc([N+](=O)[O-])c(F)cc1Br`, with 171 to 173 °C; and `Cc1nc2c(cnn2C(C)C)c(=O)[nH]1`, with 174 to 176 °C.
Under `O=C(OCc1ccc(Br)cc1)c1ccccc1O` stands 69 to 71 °C; under `CCOC(=O)c1cc(C)nc2c(C(N)=O)cnn12`, 198 to 200 °C; under `Nc1ncc(CCC(=O)O)s1`, 195 to 197 °C.
Then `CC(C)(C)OC(=O)N1CCC(I)CC1`, with 44 to 46 °C; and `COC(=O)c1sc(-c2ccccc2Cl)cc1N`, with 109 to 111 °C; and `CN(CCCC(=O)O)C(=O)c1cc(S(N)(=O)=O)cn1C`, with 173 to 175 °C.
`O=S(=O)(Cl)CCS(=O)(=O)c1ccc(F)cc1` returned a melting point of 145 to 147 °C.
Under `Nc1ccc(C(=O)NC2CC2)c(Cl)c1` stands 158 to 160 °C; under `O=C(O)c1ccc(CSc2ccc(Cl)cc2)cc1`, 182 to 184 °C.
Then `O=C(O)CN1C(=O)Cc2ccccc2C1=O`, with 246 to 248 °C; and `CCOC(=O)c1c(C(C)(C)C)csc1N`, with 56 to 58 °C.
Then `N=C(N)NS(=O)(=O)c1ccccc1`, with 211 to 213 °C; and `O=C(O)CCNC(=O)c1c[nH]c2ccccc12`, with 157 to 159 °C.
On to `CC(Nc1ccc(C(=O)O)cc1[N+](=O)[O-])c1ccccn1` (stereo not given), for which the melting point fell in the range of 204 to 206 °C.
Under `CC(C)(F)c1nc(N)nc(Cl)n1` stands 169 to 171 °C; under `NC(CC(=O)N1CCCCC1)=NO`, 179 to 181 °C; under `CCc1ccc(-c2csc(N)n2)cc1`, 120 to 122 °C.
`Cc1ccc2c(c1)C(=O)N(CCC(=O)O)C2=O` gave a melting point of 163 to 165 °C.
Under `CC1(C)NCCNC1=O` stands 113 to 115 °C; under `COC(=O)c1sc(S(=O)(=O)Cl)c(C(=O)OC)c1C`, 88 to 92 °C.
Then `O=C(O)Cc1c[nH]c2cc(Cl)ccc12`, with 185 to 187 °C; and `CCc1nnc(S)n1C`, with 138 to 140 °C.
Under `Nc1ccc(Oc2cccc(F)c2)cc1` stands 72 to 74 °C; under `Nc1ccc(Oc2cccc(Cl)c2)cc1`, 41 to 43 °C.
The molecule `CC(C)C(C)(C#N)NC(=O)CCl` (stereo not given) had a melting point of 71 to 73 °C.
Under `Nc1ccnn1-c1ccc(C(F)(F)F)cn1` stands 89 to 91 °C.
Under `COc1ccc(C(C)=O)cc1CSc1nnnn1C` stands 64 to 66 °C; under `C=CC(=O)NCC1CCCCC1`, 47 to 49 °C; under `Nc1cc(N2CCOC2=O)ccc1F`, 119 to 121 °C.
Under `Nc1ccccc1CN1CCC(O)CC1` stands 112 to 114 °C; under `CC(=O)N1CCN(S(=O)(=O)c2cccc(C(=O)O)c2)CC1`, 258 to 262 °C; under `NNC(=O)NCc1ccco1`, 88 to 90 °C.
With `O=C1C=CC(=O)N1c1cnccn1`, the melting point fell in the range of 116 to 118 °C.
Under `N#Cc1cc(Cl)ccc1Oc1cccc(C(=O)O)c1` stands 211 to 213 °C; under `O=C(O)CCc1nc2ccccc2[nH]1`, 229 to 231 °C; under `CSCCC(NC(=O)c1cccc(C)c1)C(=O)O` (stereo not given), 115 to 117 °C.
Then `CC(=O)NCCc1ccc(C(=O)C(C)Cl)cc1` (stereo not given), with 85 to 89 °C.
Under `COc1ccc(N2CC(C(=O)O)CC2=O)cc1` (stereo not given) stands 171 to 173 °C.
`Cn1ccnc1Sc1ccc(C=O)cc1[N+](=O)[O-]` gave a melting point of 173 to 175 °C.
Then `COc1cccc(C2(C)NC(=O)NC2=O)c1` (stereo not given), with 119 to 121 °C.
Then `CCC(=CC(=O)O)c1ccc(OC)cc1`, with 130 to 132 °C.
Turning to `N#Cc1ccc2ncc(C=O)n2c1`, the melting point was in the range of 184 to 186 °C.
Under `CCCNC(=O)Nc1ccc(CC(=O)O)cc1` stands 174 to 176 °C; under `Nc1nnc(NS(=O)(=O)c2ccccc2)[nH]1`, 303 to 305 °C.
Under `Cc1ccc(NC(=O)CCl)cc1Br` stands 180 to 181 °C; under `CC1CCCC(NC(=O)NC(=O)CCl)C1C` (stereo not given), 131 to 133 °C.
Take `Cc1cc(C(=O)CCl)c(C)n1Cc1cccs1`: the melting point was 83 to 85 °C.
Under `O=c1[nH]cnc2nc(N3CCOCC3)sc12` stands 397 to 399 °C; under `COc1cc(-c2cc(C(=O)O)c3ccccc3n2)cc(OC)c1OC`, 195 to 197 °C; under `O=Cc1ccc(-c2cccnc2)o1`, 104 to 106 °C.
Then `Nc1ccc(C(=O)Nc2nccs2)cc1`, with 256 to 258 °C.
Under `CC(C)NS(=O)(=O)c1cc(C(=O)O)ccc1F` stands 168 to 170 °C; under `NC(=NO)c1cccc(Oc2ccccc2)c1`, 66 to 68 °C; under `CC(C)(C)OC(=O)NCCCN`, 22 to 24 °C.
`COCCN(C)S(N)(=O)=O` gave a melting point of 34 to 36 °C.
Take `COc1ccc(N)cc1S(=O)(=O)N(C)C`: the melting point was 144 to 146 °C.
Then `O=c1c2ccccc2oc2ccc([N+](=O)[O-])cc12`, with 203 to 205 °C; and `Cn1cc(C(=O)O)c(-c2ccc3c(c2)OCCCO3)n1`, with 199 to 201 °C.
Under `O=C(Nc1ccccc1[N+](=O)[O-])c1ccc2ccccc2n1` stands 73 to 75 °C.
Take `O=C(O)c1cc(S(=O)(=O)NCc2ccco2)c(Cl)cc1Cl`: the melting point lay in the range of 149 to 151 °C.
Then `CC1=C(C(=O)Nc2ccccc2)C2(CCCCC2)C(C#N)=C(S)N1`, with 238 to 240 °C; and `NNC(=S)N1CCOCC1`, with 181 to 183 °C; and `O=C(O)c1csc(-c2cnn(-c3ccccc3)n2)n1`, with 239 to 241 °C.
Then `CCN(CC)S(=O)(=O)c1cccc(C(=O)O)c1`, with 164 to 166 °C; and `Cc1[nH]c2c(Cl)cccc2c1C=O`, with 229 to 231 °C; and `Nc1cccc(C(=O)N2CCC(O)CC2)c1`, with 128 to 130 °C.
Then `O=C(O)C1=NN(c2nc3ccccc3[nH]2)C(=O)CC1`, with 328 to 330 °C; and `NNC(=O)Cc1ccccc1Cl`, with 154 to 156 °C.
`N#CC1=C(Cl)CCCC1` returned a melting point of 38 to 40 °C.
As to `O=C(/C=C/c1ccc2c(c1)CCO2)N1CCCC(CO)C1` (stereo not given), the melting point is 131 to 133 °C.
Then `CC(=O)NC(Cc1c[nH]c2cc(F)ccc12)C(=O)O` (stereo not given), with 181 to 183 °C; and `CC1C(=O)NCCN1C(=O)c1ccco1` (stereo not given), with 149 to 151 °C; and `O=C(O)CCc1ccncc1`, with 209 to 211 °C.
`CC(C)c1nccn1Cc1cccc(N)c1` yielded a melting point of 88 to 90 °C.
Then `Cc1ccc2cc(CCl)c(Cl)nc2c1C`, with 109 to 111 °C.
Under `Cc1cc(NN)nc2c(C)cccc12` stands 168 to 170 °C; under `CC(C)(C)C(=O)N1CCNCC1`, 52 to 54 °C.
